The values below come from PubChem BioAssay AID1259411 (Chemical Carcinogenesis Research Information System (CCRIS), 2018).

This data set relates to rodent carcinogenicity bioassays, tumor incidence. Kind of data set: CCRIS carcinogenicity studies. The essentials: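 Archive of carcinogenicity, mutagenicity, tumor promotion and tumor inhibition results drawn from journals, NCI reports and other sources, expert-reviewed; covers 1985-2011 and is no longer updated.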

Each structure is given as a SMILES string. Activity calls are given as the source filed them. How the calls were made is not given here.

Consider `CC/C(=C(/CC)c1ccc(O)cc1)c1ccc(O)cc1`, for which the carcinogen call is “active; positive” (Species: HAMSTER, Route: PRE-NATAL EXPOSURE, Tumor Site: Type of Lesion: UTERUS, ACCESSORY SEX ORGANS (M), VAGINA, CERVIX, Tumor Site: Type of Lesion: UTERUS, ACCESSORY SEX ORGANS (M), VAGINA, CERVIX); “active; positive” (Species: HAMSTER, Route: SUBCUTANEOUS IMPLANT, Tumor Site: Type of Lesion: KIDNEY); “active; positive” (Species: HAMSTER, Route: SUBCUTANEOUS, Tumor Site: Type of Lesion: KIDNEY); “active; positive” (Species: HAMSTER, Strain/Sex: SYRIAN/MALE, Route: SUBCUTANEOUS IMPLANT, Dose: 0, 20 MG IN PELLETS IMPLANTED EVERY 2.5 MO FOR 9 MO (STUDY DURATION: 9 MO), Tumor Site: Type of Lesion: KIDNEY: TUMOR); “active; positive” (Species: HUMAN, Route: DERMAL, Tumor Site: Type of Lesion: CERVIX OR VAGINA); “active; positive” (Species: MONKEY, Route: SUBCUTANEOUS, Tumor Site: Type of Lesion: UTERUS). For the same compound, the carcinogen call by setting is: (Species: MOUSE, Route: NEO-NATAL EXPOSURE, Tumor Site: Type of Lesion: CERVIX, VAGINA) “active; positive”; (Species: MOUSE, Route: ORAL, Tumor Site: Type of Lesion: MAMMARY GLAND, CERVIX, VAGINA, Tumor Site: Type of Lesion: MAMMARY GLAND, CERVIX, VAGINA) “active; positive”; (Species: MOUSE, Route: PRE-NATAL EXPOSURE, Tumor Site: Type of Lesion: CERVIX, VAGINA, OVARIES, Tumor Site: Type of Lesion: CERVIX, VAGINA, OVARIES) “active; positive”; (Species: MOUSE, Route: SUBCUTANEOUS IMPLANT, Tumor Site: Type of Lesion: TESTES, MAMMARY GLAND, LYMPHATIC SYSTEM, Tumor Site: Type of Lesion: TESTES, MAMMARY GLAND, LYMPHATIC SYSTEM) “active; positive”; (Species: MOUSE, Route: SUBCUTANEOUS, Tumor Site: Type of Lesion: MAMMARY GLAND, GENITAL TRACT, OVARIES, Tumor Site: Type of Lesion: MAMMARY GLAND, GENITAL TRACT, OVARIES) “active; positive”; (Species: MOUSE, Strain/Sex: C3H/FEMALE, Route: ORAL, Dose: 0, 2.5, 5, 10, 20, 40, 80, 160, 320, 640 PPB IN DIET (STUDY DURATION: 455 D), Dose: 0, 2.5, 5, 10, 20, 40, 80, 160, 320, 640 PPB IN DIET (STUDY DURATION: 455 D), Tumor Site: Type of Lesion: MAMMARY GLAND: ADENOCARCINOMA) “active; positive”. For the same compound, the carcinogen call is, setting by setting: (Species: MOUSE, Strain/Sex: C57BL/6/MALE,FEMALE (WILD TYPE), Route: DIET, Dose: 0, 1500 PPB IN DIET FOR 39 WKS (STUDY DURATION: 39 WKS)) “inactive; negative”; (Species: MOUSE, Strain/Sex: C57BL/6/XPA/P53/MALE,FEMALE (TRANSGENIC), Route: DIET, Dose: 0, 1500 PPB IN DIET FOR 39 WKS (STUDY DURATION: 39 WKS), Tumor Site: Type of Lesion: BONE: OSTEOSARCOMA (MALES ONLY), TESTICULAR INTERSTITIAL CELL ADENOMA (BENIGN), MALES) “active; positive in males only”; (Species: MOUSE, Strain/Sex: C57BL/6XPA/MALE,FEMALE (TRANSGENIC), Route: DIET, Dose: 0, 100, 300, 1500 PPB IN DIET FOR 39 WKS (STUDY DURATION: 39 WKS), Dose: 0, 100, 300, 1500 PPB IN DIET FOR 39 WKS (STUDY DURATION: 39 WKS), Tumor Site: Type of Lesion: PITUITARY: ADENOMA (BENIGN)) “significant in males at 1500 ppb only”; (Species: MOUSE, Strain/Sex: CD-1/FEMALE, Route: INTRAPERITONEAL, Dose: 0, 1 UG/G BW ADMINISTERED TO PREGNANT MICE AT 16 D AND 16 HR, 17 D, OR 17 D 16 HR POST CONCEPTION OR 2 UG/G BW AT 17 D 1, Tumor Site: Type of Lesion: PITUITARY GLAND: TUMOR) “active; positive”; (Species: RAT, Route: NEO-NATAL EXPOSURE, Tumor Site: Type of Lesion: ACCESSORY SEX ORGANS (M)) “active; positive”; (Species: RAT, Route: ORAL, Tumor Site: Type of Lesion: MAMMARY GLAND, PITUITARY GLAND) “active; positive”. For the same compound, the carcinogen call by setting is: (Species: RAT, Route: SUBCUTANEOUS IMPLANT, Tumor Site: Type of Lesion: MAMMARY GLAND, URINARY BLADDER) “active; positive”; (Species: RAT, Route: SUBCUTANEOUS, Tumor Site: Type of Lesion: MAMMARY GLAND, PITUITARY GLAND) “active; positive”; (Species: RAT, Strain/Sex: ACI/FEMALE, Route: SUBCUTANEOUS IMPLANT, Dose: 0, 1.25 MG/100 G ONCE IN A 20 MG PELLET AT AGES 75, 127 AND 177 D (STUDY DURATION: 347-365 D), Tumor Site: Type of Lesion: MAMMARY GLAND: ADENOCARCINOMA) “active; positive”; (Species: RAT, Strain/Sex: WISTAR/FEMALE, Route: SUBCUTANEOUS, Dose: 0, 0.1, 0.5 MG/KG TO MOTHERS ON D 18, 19 AND 20 OF GESTATION (STUDY DURATION: 2 YR), Dose: 0, 0.1, 0.5 MG/KG TO MOTHERS ON D 18, 19 AND 20 OF GESTATION (STUDY DURATION: 2 YR), Tumor Site: Type of Lesion: VAGINA: TUMOR) “active; positive”; (Species: RAT, Strain/Sex: WISTAR/FEMALE, Route: SUBCUTANEOUS, Dose: 0, 25, 50 MG/KG TO MOTHERS ON D 19 AND 20 OF GESTATION (STUDY DURATION: 2 YR), Dose: 0, 25, 50 MG/KG TO MOTHERS ON D 19 AND 20 OF GESTATION (STUDY DURATION: 2 YR), Tumor Site: Type of Lesion: VAGINA: TUMOR) “active; positive”.
As to `CC1CN(N=O)C(=O)O1` (stereo not given), the carcinogen call (Species: HAMSTER, Strain/Sex: SYRIAN/FEMALE, Route: GAVAGE, Dose: 0, 14 MG/ML ((0.2 ML OF A SOLUTION IN ETHYL ACETATE/CORN OIL (1:2)) 1/WK FOR 28 WK (STUDY DURATION: LIFE SPAN), Tumor Site: Type of Lesion: FORESTOMACH: SQUAMOUS CELL CARCINOMA OR PAPILLOMA) was “active; positive”.
Regarding `O=c1[nH]cc(N(CCCl)CCCl)c(=O)[nH]1`, the carcinogen call by setting is: (Species: MOUSE, Strain/Sex: STRAIN-A/MALE,FEMALE, Route: INTRAPERITONEAL, Dose: 0.18-12 MG/KG IN 12 DOSES OVER 4 WK, Tumor Site: Type of Lesion: LUNG: ADENOMA) “active; positive”; (Species: MOUSE, Strain/Sex: STRAIN-A/MALE,FEMALE, Route: INTRAPERITONEAL, Dose: 8, 20, 40 MG/KG FOR 7 DOSES OVER 24 WK, Dose: 8, 20, 40 MG/KG FOR 7 DOSES OVER 24 WK, Tumor Site: Type of Lesion: LUNG: ADENOMA) “active; positive”; (Species: RAT, Strain/Sex: STRAIN-CD/FEMALE, Route: INTRAPERITONEAL, Dose: 0.15, 0.3 MG/KG 3/WK FOR 6 MO, Tumor Site: Type of Lesion: LYMPHATIC SYSTEM: LYMPHOMA, PERITONEAL CAVITY: SARCOMA, MAMMARY GLAND: CARCINOMA, OVARIES: CARCINOMA, Tumor Site: Type of Lesion: LYMPHATIC SYSTEM: LYMPHOMA, PERITONEAL CAVITY: SARCOMA, MAMMARY GLAND: CARCINOMA, OVARIES: CARCINOMA) “active; positive”; (Species: RAT, Strain/Sex: STRAIN-CD/MALE, Route: INTRAPERITONEAL, Dose: 0.15, 0.3 MG/KG 3/WK FOR 6 MO, Tumor Site: Type of Lesion: LYMPHATIC SYSTEM: LYMPHOMA, PANCREAS, PERITONEAL CAVITY: SARCOMA, Tumor Site: Type of Lesion: LYMPHATIC SYSTEM: LYMPHOMA, PANCREAS, PERITONEAL CAVITY: SARCOMA) “active; positive”.
Regarding `Nc1cc(Cl)ccc1O`, the carcinogen call runs as follows: (Species: Rat, Strain/Sex: F344/DuCrlCrlj / Female, Route: Oral, Dose: 0, 1280, 3200, 8000 ppm in diet for 2 yr study duration, Dose: 0, 1280, 3200, 8000 ppm in diet for 2 yr study duration, Tumor Site: Type of Lesion: Forestomach: squamous cell papilloma/carcinoma) “active; positive”; (Species: Rat, Strain/Sex: F344/DuCrlCrlj / Male, Route: Oral, Dose: 0, 1280, 3200, 8000 ppm in diet for 2 yr study duration, Dose: 0, 1280, 3200, 8000 ppm in diet for 2 yr study duration, Tumor Site: Type of Lesion: Forestomach: squamous cell papilloma/carcinoma. Urinary bladder: papilloma/carcinoma) “active; positive”.
Regarding `Cc1cc(C(C)(C)C)c(O)c(C(C)(C)C)c1`, the carcinogen call is, setting by setting: (Species: MOUSE, Strain/Sex: B6C3F1/FEMALE, Route: ORAL, Dose: 0, 3000, 6000 PPM IN DIET, Dose: 0, 3000, 6000 PPM IN DIET) “inactive; negative”; (Species: MOUSE, Strain/Sex: B6C3F1/MALE,FEMALE, Route: ORAL, Dose: 200, 1000, 5000 PPM IN DIET FOR 96 WK, Dose: 200, 1000, 5000 PPM IN DIET FOR 96 WK) “inactive; negative”; (Species: MOUSE, Strain/Sex: B6C3F1/MALE, Route: ORAL, Dose: 0, 3000, 6000 PPM IN DIET, Dose: 0, 3000, 6000 PPM IN DIET) “inactive; negative”; (Species: RAT, Strain/Sex: F344/FEMALE, Route: ORAL, Dose: 0, 3000, 6000 PPM IN DIET, Dose: 0, 3000, 6000 PPM IN DIET) “inactive; negative”; (Species: RAT, Strain/Sex: F344/MALE, Route: ORAL, Dose: 0, 3000, 6000 PPM IN DIET, Dose: 0, 3000, 6000 PPM IN DIET) “inactive; negative”.
